Assay results: article PMC7501227, “Flatfishes colonised freshwater environments by acquisition of various DHA biosynthetic pathways” (Communications Biology, 2020)

Columns and labels:
Elovl5 (H. mentalis) = target: T1, Elovl5 (H. mentalis) (Hypoclinemus mentalis, UniProt A0A7G1GDF4); experiment: yeast expression, GC of FAMEs, % conversion; assay type: cell-based; details: elongation of C18 substrate; yeast culture 48 h, 30 °C
T1 construct: full ORF in pYES2, expressed in S. cerevisiae INVSc1
T1 sequence (A0A7G1GDF4 1-294): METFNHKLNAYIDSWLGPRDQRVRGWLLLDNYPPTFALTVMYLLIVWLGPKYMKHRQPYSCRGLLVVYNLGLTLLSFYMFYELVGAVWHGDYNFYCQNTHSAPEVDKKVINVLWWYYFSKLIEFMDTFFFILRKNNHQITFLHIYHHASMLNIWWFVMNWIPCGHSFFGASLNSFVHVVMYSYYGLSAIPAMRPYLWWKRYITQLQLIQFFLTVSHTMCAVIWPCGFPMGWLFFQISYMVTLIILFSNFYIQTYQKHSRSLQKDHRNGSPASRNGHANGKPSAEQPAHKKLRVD

Elovl5 (G. melas) = target: T2, Elovl5 (G. melas) (Gymnachirus melas, UniProt A0A7G1GDB9); experiment: yeast expression, GC of FAMEs, % conversion; assay type: cell-based; details: elongation of C18 substrate; yeast culture 48 h, 30 °C
T2 construct: full ORF in pYES2, expressed in S. cerevisiae INVSc1
T2 sequence (A0A7G1GDB9 1-294): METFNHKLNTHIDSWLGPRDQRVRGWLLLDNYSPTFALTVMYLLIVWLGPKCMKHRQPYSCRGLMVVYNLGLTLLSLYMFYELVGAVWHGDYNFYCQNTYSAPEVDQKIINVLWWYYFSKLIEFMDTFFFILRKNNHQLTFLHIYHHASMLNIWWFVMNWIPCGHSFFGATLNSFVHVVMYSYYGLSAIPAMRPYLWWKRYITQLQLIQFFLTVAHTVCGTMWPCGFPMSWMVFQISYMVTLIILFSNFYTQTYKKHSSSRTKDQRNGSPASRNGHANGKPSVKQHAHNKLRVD

Elovl5 (T. maculatus) = target: T3, Elovl5 (T. maculatus) (Trinectes maculatus, UniProt A0A7G1GDF5); experiment: yeast expression, GC of FAMEs, % conversion; assay type: cell-based; details: elongation of C18 substrate; yeast culture 48 h, 30 °C
T3 construct: full ORF in pYES2, expressed in S. cerevisiae INVSc1
T3 sequence (A0A7G1GDF5 1-294): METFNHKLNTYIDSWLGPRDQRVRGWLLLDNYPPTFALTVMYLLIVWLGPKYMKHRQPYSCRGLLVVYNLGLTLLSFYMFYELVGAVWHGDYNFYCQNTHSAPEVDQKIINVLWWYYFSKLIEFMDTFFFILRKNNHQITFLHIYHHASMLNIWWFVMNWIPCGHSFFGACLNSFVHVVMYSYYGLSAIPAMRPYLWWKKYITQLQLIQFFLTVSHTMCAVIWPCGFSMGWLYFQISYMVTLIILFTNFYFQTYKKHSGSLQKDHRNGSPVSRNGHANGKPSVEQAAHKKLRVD

Fads2 (A. finis) [1] = target: T4, Fads2 (A. finis) (Apionichthys finis, UniProt A0A7G1GDB3); experiment: yeast co-expression with zebrafish Elovl2, GC of FAMEs; assay type: cell-based; design: full ORF in pYES2, expressed in S. cerevisiae INVSc1; details: Δ6 desaturation; 24:5n-3 formed in the yeast from 22:5n-3 by zebrafish Elovl2; normalised to 18:3n-3
T4 sequence (A0A7G1GDB3 entry or part of it): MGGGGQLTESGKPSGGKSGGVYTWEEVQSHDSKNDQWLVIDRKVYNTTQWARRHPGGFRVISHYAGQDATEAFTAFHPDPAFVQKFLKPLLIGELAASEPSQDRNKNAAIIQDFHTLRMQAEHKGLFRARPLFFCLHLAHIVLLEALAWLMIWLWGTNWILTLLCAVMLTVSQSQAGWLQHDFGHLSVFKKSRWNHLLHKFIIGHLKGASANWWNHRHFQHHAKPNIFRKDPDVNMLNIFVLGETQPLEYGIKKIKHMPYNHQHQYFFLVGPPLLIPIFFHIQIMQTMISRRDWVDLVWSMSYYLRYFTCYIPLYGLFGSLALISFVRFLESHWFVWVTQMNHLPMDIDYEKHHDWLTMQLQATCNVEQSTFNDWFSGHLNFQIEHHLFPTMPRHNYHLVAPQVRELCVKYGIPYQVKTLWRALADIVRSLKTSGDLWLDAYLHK

Fads2a (H. mentalis) = target: T5, Fads2a (H. mentalis) (Hypoclinemus mentalis, UniProt A0A7G1GDA4); experiment: yeast expression, GC of FAMEs, % conversion; assay type: cell-based; details: Δ6 desaturation; yeast culture 48 h, 30 °C
T5 construct: full ORF in pYES2, 442 residues, expressed in S. cerevisiae INVSc1
T5 sequence (A0A7G1GDA4 entry or part of it): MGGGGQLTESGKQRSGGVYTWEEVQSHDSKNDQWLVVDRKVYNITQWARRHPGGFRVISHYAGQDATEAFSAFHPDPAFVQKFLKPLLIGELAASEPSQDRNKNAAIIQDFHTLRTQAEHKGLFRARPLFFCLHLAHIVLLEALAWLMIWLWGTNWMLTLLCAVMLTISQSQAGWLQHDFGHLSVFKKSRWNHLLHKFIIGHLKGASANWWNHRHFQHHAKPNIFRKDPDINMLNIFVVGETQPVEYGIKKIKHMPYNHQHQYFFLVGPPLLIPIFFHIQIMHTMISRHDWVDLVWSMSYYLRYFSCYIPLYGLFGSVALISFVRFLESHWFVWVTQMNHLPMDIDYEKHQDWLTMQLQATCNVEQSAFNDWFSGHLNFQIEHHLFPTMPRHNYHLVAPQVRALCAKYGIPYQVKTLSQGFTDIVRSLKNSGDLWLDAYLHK

Fads2 (A. finis) [2] = target: T4, Fads2 (A. finis); details: Δ6 desaturation; yeast culture 48 h, 30 °C

For `CC/C=C\C/C=C\C/C=C\C/C=C\CCCCC(=O)O` [18:4n − 3], the “yeast expression, GC of FAMEs, % conversion” value (Elovl5 (H. mentalis)) was “The Elovl5 performed elongations of C18 to C22 substrates”, the “yeast expression, GC of FAMEs, % conversion” value (Elovl5 (G. melas)) was “The G. melas Elovl5 exhibited activity towards C18 to C22 substrates” and the “yeast expression, GC of FAMEs, % conversion” value (Elovl5 (T. maculatus)) was “The Elovl5 showed elongase activities towards C18 to C22 substrates”.
For `CC/C=C\C/C=C\C/C=C\C/C=C\C/C=C\CCCCCCCC(=O)O` [24:5n − 3], the “yeast co-expression with zebrafish Elovl2, GC of FAMEs” value (Fads2 (A. finis) [1]) was “desaturation at the highest efficiency among the four species”.
In the case of `CC/C=C\C/C=C\C/C=C\CCCCCCCC(=O)O` [α-linolenic acid], the “yeast expression, GC of FAMEs, % conversion” value (Fads2a (H. mentalis)) was “The two Fads2, namely Fads2a and Fads2b, showed distinct activities” and the “yeast expression, GC of FAMEs, % conversion” value (Fads2 (A. finis) [2]) was “The Fads2 isolated from A. finis showed”.
